Assay [1] has as its system Staphylococcus aureus MSSA. Description: MIC agar dilution assay (Table 1). To be noted: for MIC50: read-out: MIC, 50% Inhibitious; for MIC90: read-out: MIC, 90% Inhibitious. It is filed as cell-based. On the technique in general: In agar dilution, organisms are placed on agar that contains the substance at set levels.
The test system of assay [2] is Staphylococcus aureus MRSA. Description: MIC agar dilution assay (Table 1). Format: cell-based. Conditions: for MIC50: read-out: MIC, 50% Inhibitious; for MIC90: read-out: MIC, 90% Inhibitious.
Assay [3] deals with Streptococcus beta-hemolytic. Put plainly: MIC agar dilution assay (Table 1). Format: cell-based. To be noted: for MIC50: read-out: MIC, 50% Inhibitious; for MIC90: read-out: MIC, 90% Inhibitious.
Another assay has as its system Streptococcus pneumoniae. Description: MIC agar dilution assay (Table 1). It is filed as cell-based.
The next assay deals with Streptococcus faecalis. Description: MIC agar dilution assay (Table 1). Conditions: Enterococcus faecalis; for MIC50: read-out: MIC, 50% Inhibitious; for MIC90: read-out: MIC, 90% Inhibitious. Format: cell-based.
The test system of a further assay is Escherichia coli 314. Description: animal or person. To be noted: for ED50: Escherichia coli, 314, in Mus musculus, 168 h. The protocol: (§1) In this test, white mice (weight 20±2 g) of Charles River strain CDI received an intraperitoneal injection of a specific amount of a suspension of a bacterial cell culture. The amount is sufficient to cause death of untreated animals within 24-48 hrs. A half hour later, the test animals were administered either an oral or a subcutaneous dosing of the test compound in 0.5 ml of 0.2% starch solution. With streptococcal infections, the test animals received a second dose after 3 hrs. Each test group had 5 animals and each test was performed three times. The ED50 values were calculated on the basis of the survivors at 7 days. An estimate of the oral absorption of the test compounds was determined from the ratio of the ED50 values from the oral and subcutaneous dosings.

In another assay the test system is Klebsiella pneum. AD. Description: animal or person. To be noted: for ED50: Klebsiella, in Mus musculus, 168 h. As for the experimental part:
as §1

The test system of the next assay is Staph. aureus Smith. Description: animal or person. Conditions: for ED50: Staphylococcus aureus, in Mus musculus, 168 h. As for the experimental part:
as §1

Another assay deals with CITRO DIV. Put plainly: MIC agar dilution assay (Table III). To be noted: 18 CITRO DIV K 82 24; 18 Hrs, 35 Celsius; read-out: MINIMAL INHIBITORY CONC. Format: cell-based. As for the experimental part:
(§2) The results are summarized in Table III. |TEST: 406 METHOD: […] |MEDIUM: […] |INCUBATION: 18 Hrs. 35 Celsius | Aerobic: T

A further assay relates to ESCH COLI. Put plainly: MIC agar dilution assay (Table III). It is filed as cell-based. To be noted: 18 h, read-out: MINIMAL INHIBITORY CONC. As for the experimental part:
as §2

A further assay relates to PROV STUA. Put plainly: MIC agar dilution assay (Table III). Format: cell-based. Conditions: 17 PROV STUA CMC 83 3; 18 Hrs, 35 Celsius; read-out: MINIMAL INHIBITORY CONC. As for the experimental part:
as §2

A further assay deals with PSEU AERUG. Description: MIC agar dilution assay (Table III). Format: cell-based. To be noted: 18 h, read-out: MINIMAL INHIBITORY CONC. As for the experimental part: as §2
Another assay relates to STREP FAEC. Put plainly: MIC agar dilution assay (Table III). Format: cell-based. To be noted: 18 h, read-out: MINIMAL INHIBITORY CONC. As for the experimental part: as §2
Another assay has as its system MORG MORG. Description: MIC agar dilution assay (Table III). Format: cell-based. To be noted: 18 h, read-out: MINIMAL INHIBITORY CONC. The protocol:
(§3) TEST: 406 METHOD: AGAR DIL
(§4) MEDIUM: MUEL-HIN INOCULUM: 1.OE+04 - 5.OE+04
(§5) INCUBATION: 18 Hrs. 35 Celsius

The test system of another assay is SERRAT MARC. Put plainly: MIC agar dilution assay (Table III). Format: cell-based. To be noted: 18 h, read-out: MINIMAL INHIBITORY CONC. As for the experimental part:
as §3, §4, §5

The test system of a further assay is STAPH AUR. Description: MIC agar dilution assay (Table III). To be noted: 18 h, 24 STAPH AUR CMC 83 131, 35 Celsius, read-out: MINIMAL INHIBITORY CONC. It is filed as cell-based. As for the experimental part:
as §3, §4, §5

The subject of the next assay is Bacteroides fragilis. Description: MIC agar dilution assay, anaerobe bacteria (Table 1). Format: cell-based.
The next assay has as its system Bacteroides app. The assay is described as above. It is filed as cell-based. Conditions: for MIC50: read-out: MIC, 50% Inhibitious; for MIC90: read-out: MIC, 90% Inhibitious.
The next assay concerns Staph. aureus SSC-80-32. Put plainly: animal or person. To be noted: for ED50: Staphylococcus aureus, SSC8032, in Mus musculus, 168 h. The protocol: as §1
For another assay, the system named is Strept. pneum. SVI. Description: animal or person. To be noted: for ED50: Mus musculus, 168 h. The protocol: as §1
For another assay, the system named is Strept. pyogenes C 203. Put plainly: animal or person. Conditions: for ED50: Streptococcus pyogenes, C203, in Mus musculus, 168 h. The protocol:
as §1

[4] abbreviates: read-out: MIC, 50% Inhibitious, 50%.
The mark [5] stands for this setting: read-out: MIC, 90% Inhibitious, 90%.
Where [6] appears, read: o/s, estimate of oral absorption, 10080 min.

Values after ≈ are worked out from the molar mass of the structure shown. Where two headings read alike, the source gives them in different places.

Broadly, the ED50 is the dose at which the effect has come halfway, by size or by number of responders. A high value points to weaker potency.

In the case of `CCn1cc(C(=O)O)c(=O)c2cc(F)c(N3CCN(C)CC3)cc21` [PF, Pefloxacin, reference compound], the MIC50 turned out to be 0.5 µg/mL (≈ 1.5 µM) in assay [1] (Staphylococcus aureus MSSA, 50%); 0.5 µg/mL (≈ 1.5 µM) in [2] (Staphylococcus aureus MRSA, 50%); 4 µg/mL (≈ 12 µM) in [3] (Streptococcus beta-hemolytic, 50%); 4 µg/mL (≈ 12 µM) in the assay with Streptococcus pneumoniae (setting [4]); 4 µg/mL (≈ 12 µM) in the assay with Streptococcus faecalis (Streptococcus faecalis, 50%). Also, the MIC90 in assay [1] (Staphylococcus aureus MSSA, 90%) was 1 µg/mL (≈ 3 µM); in assay [2] (Staphylococcus aureus MRSA, 90%) it was 1 µg/mL (≈ 3 µM); in assay [3] (Streptococcus beta-hemolytic, 90%), 8 µg/mL (≈ 24 µM); in the assay with Streptococcus pneumoniae (setting [5]), 8 µg/mL (≈ 24 µM); with Streptococcus faecalis (Streptococcus faecalis, 90%), 8 µg/mL (≈ 24 µM). The ED50 was 0.84 mg/kg with Escherichia coli 314 (po); 0.48 mg/kg in the assay with Escherichia coli 314 (sc); 0.8 mg/kg with Klebsiella pneum. AD (po); 0.71 mg/kg in the assay with Klebsiella pneum. AD (sc); 3.8 mg/kg with Staph. aureus Smith (po); 1.4 mg/kg in the assay with Staph. aureus Smith (sc). Moreover, the MIC was 0.03 µg/mL (≈ 0.09 µM) in the assay on CITRO DIV; 0.06 µg/mL (≈ 0.18 µM) in the assay on ESCH COLI (1 ESCH COLI MOR 84 20, 35 Celsius); 0.06 µg/mL (≈ 0.18 µM) with ESCH COLI (2 ESCH COLI VGH 84 19, 35 Celsius); 0.06 µg/mL (≈ 0.18 µM) with ESCH COLI (3 ESCH COLI CMC 84 50, 35 Celsius); 0.03 µg/mL (≈ 0.09 µM) in the assay with ESCH COLI (28 ESCH COLI ATCC 25922, 35 Celsius); 4 µg/mL (≈ 12 µM) with PROV STUA. The MIC amounted to 4 µg/mL (≈ 12 µM) with PSEU AERUG (19 PSEU AERUG K 84 16, 35 Celsius); 8 µg/mL (≈ 24 µM) with PSEU AERUG (20 PSEU AERUG VGH 84 3, 35 Celsius); 2 µg/mL (≈ 6 µM) with PSEU AERUG (21 PSEU AERUG CMC 83 20, 35 Celsius); 4 µg/mL (≈ 12 µM) with STREP FAEC (25 STREP FAEC UCI 85 30, 35 Celsius); 2 µg/mL (≈ 6 µM) in the assay on STREP FAEC (26 STREP FAEC VGH 84 69, 35 Celsius); 4 µg/mL (≈ 12 µM) with STREP FAEC (27 STREP FAEC CMC 83 120, 35 Celsius). Moreover, the MIC is 0.03 µg/mL (≈ 0.09 µM) in the assay with MORG MORG (14 MORG MORG CMC 84 38, 35 Celsius); 0.03 µg/mL (≈ 0.09 µM) with MORG MORG (15 MORG MORG MOR 84 45, 35 Celsius); 0.06 µg/mL (≈ 0.18 µM) with SERRAT MARC (10 SERRAT MARC MOR 84 41, 35 Celsius); 4 µg/mL (≈ 12 µM) with SERRAT MARC (11 SERRAT MARC CMC 83 74, 35 Celsius); 2 µg/mL (≈ 6 µM) in the assay with STAPH AUR.

`CN1CC2CC1CN2c1cc2c(cc1F)c(=O)c(C(=O)O)cn2-c1ccc(F)cc1` (stereo not shown) [Example 5, 6-Fluoro-1-(4-fluorophenyl)-1,4-dihydro-7(5-methyl-2,5-diazabicyclo(2.2.1)hept-2-yl)-4-oxoquinoline-3-carboxylic acid]: the MIC50 in assay [1] (Staphylococcus aureus, MSSA) turned out to be 0.25 µg/mL (≈ 0.608 µM); in [2] (Staphylococcus aureus, MRSA), 0.25 µg/mL (≈ 0.608 µM); in assay [3] (Streptococcus) it was 1 µg/mL (≈ 2.43 µM); in the assay with Streptococcus pneumoniae (read-out: MIC, 50% Inhibitious), 1 µg/mL (≈ 2.43 µM); with Streptococcus faecalis, 4 µg/mL (≈ 9.72 µM); in the assay with Bacteroides fragilis (read-out: MIC, 50% Inhibitious), 4 µg/mL (≈ 9.72 µM). In the assay with Bacteroides app. (Bacteroides), the MIC50 came to 8 µg/mL (≈ 19.4 µM). For the same compound, the MIC90 came to 0.5 µg/mL (≈ 1.22 µM) in assay [1] (Staphylococcus aureus, MSSA); 1 µg/mL (≈ 2.43 µM) in assay [2] (Staphylococcus aureus, MRSA); 4 µg/mL (≈ 9.72 µM) in assay [3] (Streptococcus); 2 µg/mL (≈ 4.86 µM) in the assay with Streptococcus pneumoniae (read-out: MIC, 90% Inhibitious); 8 µg/mL (≈ 19.4 µM) in the assay on Streptococcus faecalis; 4 µg/mL (≈ 9.72 µM) with Bacteroides fragilis (read-out: MIC, 90% Inhibitious). For the same compound, the MIC90 in the assay with Bacteroides app. (Bacteroides) worked out at 8 µg/mL (≈ 19.4 µM).

Regarding `CCn1cc(C(=O)O)c(=O)c2cc(F)c(N3CCNCC3)nc21` [EC, Enoxacin], the MIC50 in the assay on Bacteroides fragilis (setting [4]) came to 16 µg/mL (≈ 49.9 µM); in the assay with Bacteroides app. (Bacteroides app., 50%), 16 µg/mL (≈ 49.9 µM). In addition, the MIC90 with Bacteroides fragilis (setting [5]) is 16 µg/mL (≈ 49.9 µM).

In the case of `O=C(O)c1cn(C2CC2)c2cc(N3CCNCC3)c(F)cc2c1=O` [CF, Ciprofloxacin], the MIC50 was 0.5 µg/mL (≈ 1.51 µM) in assay [1] (Staphylococcus aureus, MSSA); 1 µg/mL (≈ 3.02 µM) in [2] (Staphylococcus aureus, MRSA); 0.5 µg/mL (≈ 1.51 µM) in assay [3] (Streptococcus); 1 µg/mL (≈ 3.02 µM) with Streptococcus pneumoniae (read-out: MIC, 50% Inhibitious); 1 µg/mL (≈ 3.02 µM) in the assay with Streptococcus faecalis; 4 µg/mL (≈ 12.1 µM) in the assay with Bacteroides fragilis (read-out: MIC, 50% Inhibitious). In the assay on Bacteroides app. (Bacteroides), the MIC50 stood at 16 µg/mL (≈ 48.3 µM). Further, the MIC90 in assay [1] (Staphylococcus aureus, MSSA) was 1 µg/mL (≈ 3.02 µM); in [2] (Staphylococcus aureus, MRSA), 1 µg/mL (≈ 3.02 µM); in assay [3] (Streptococcus) it was 1 µg/mL (≈ 3.02 µM); with Streptococcus pneumoniae (read-out: MIC, 90% Inhibitious) it was 2 µg/mL (≈ 6.04 µM); in the assay with Streptococcus faecalis, 2 µg/mL (≈ 6.04 µM); in the assay with Bacteroides fragilis (read-out: MIC, 90% Inhibitious) it was 4 µg/mL (≈ 12.1 µM). In the assay with Bacteroides app. (Bacteroides), the MIC90 worked out at 16 µg/mL (≈ 48.3 µM). In addition, the ED50 in the assay with Escherichia coli 314 (po) is 0.52 mg/kg; in the assay with Escherichia coli 314 (sc), 0.07 mg/kg; in the assay on Klebsiella pneum. AD (po), 0.38 mg/kg; in the assay on Klebsiella pneum. AD (sc) it was 0.07 mg/kg; in the assay with Staph. aureus SSC-80-32 (po), 5.9 mg/kg; with Staph. aureus SSC-80-32 (sc) it was 0.71 mg/kg. In addition, the ED50 in the assay on Staph. aureus Smith (po) is 4.3 mg/kg; with Staph. aureus Smith (sc) it was 0.64 mg/kg; in the assay on Strept. pneum. SVI (po), 47 mg/kg; in the assay on Strept. pneum. SVI (sc), 15 mg/kg; in the assay with Strept. pyogenes C 203 (po), 21 mg/kg; in the assay on Strept. pyogenes C 203 (sc), 4 mg/kg. The “Ratio o/s of the ED50 values from oral and subcutaneous administration” value with Escherichia coli 314 (setting [6]) is given as 7.4; in the assay on Klebsiella pneum. AD (setting [6]), 4.8; in the assay on Staph. aureus SSC-80-32 (setting [6]) it was 8.3; with Staph. aureus Smith (setting [6]), 6.7; with Strept. pneum. SVI (setting [6]), 3.1; in the assay on Strept. pyogenes C 203 (setting [6]), 5.3.

Source of the values: US5045549A, “Substituted 4-pyridone 3-carboxylic acid derivatives, method for their production and their pharmaceutical compositions” (priority 1986, dated 1991).
